Source: ChEMBL document CHEMBL1130335, “Comparative molecular field analysis of a series of paclitaxel analogues” (J Med Chem, 1997)

Experiment: Measured activity expressed as ID50 (analogue)/ID50 (paclitaxel), where ID50 is the concentration of compound leading to 50% inhibition of the rate microtubule disassembly
Assay type: functional

Structure (SMILES)	Activity
CC(=O)O[C@@]12COC1C[C@H](O)[C@@]1(C)C(=O)[C@H](O)C3=C(C)[C@@H](OC(=O)[C@H](O)[C@H](NC(=O)N(C)c4ccc[nH]4)C(C)(C)C)C[C@@](O)([C@@H](OC(=O)c4ccccc4)[C@@H]12)C3(C)C (stereo partly specified)	0.96
CC(=O)O[C@@]12COC1C[C@H](O)[C@@]1(C)C(=O)[C@H](O)C3=C(C)[C@@H](OC(=O)[C@@H](NC(=O)OC(C)(C)C)[C@@H](O)c4ccccc4)C[C@@](O)([C@@H](OC(=O)c4ccccc4)[C@@H]12)C3(C)C (stereo partly specified)	160
CC(=O)O[C@@H]1C2=C(C)[C@@H](OC(=O)[C@H](O)[C@@H](NC(=O)OC(C)(C)C)C(O)CO)C[C@@](O)([C@@H](OC(=O)c3ccccc3)[C@H]3[C@@](C)([C@@H](O)CC4OC[C@]43OC(C)=O)[C@H]1O)C2(C)C (stereo partly specified)	2.71
COC(=O)[C@@H](C(=O)O[C@H]1C[C@@]2(O)[C@@H](OC(=O)c3ccccc3)[C@H]3[C@](C)(C(=O)[C@H](O)C(=C1C)C2(C)C)[C@@H](O)CC1OC[C@]13OC(C)=O)[C@H](NC(=O)OC(C)(C)C)c1ccccc1 (stereo partly specified)	10
CC(=O)O[C@@]12COC1C[C@H](O)[C@@]1(C)C(=O)[C@H](O)C3=C(C)[C@@H](OC(=O)[C@H](O)[C@@H](CC(C)(C)C)NC(=O)OC(C)(C)C)C[C@@](O)([C@@H](OC(=O)c4ccccc4)[C@@H]12)C3(C)C (stereo partly specified)	1.45
CO[C@H]1CC2OC[C@@]2(OC(C)=O)[C@H]2[C@H](OC(=O)c3ccccc3)[C@]3(O)C[C@H](OC(=O)[C@H](O)[C@@H](NC(=O)OC(C)(C)C)c4ccccc4)C(C)=C([C@@H](OC(C)=O)[C@H](O)[C@]12C)C3(C)C (stereo partly specified)	1.74
CO[C@H]1CC2OC[C@@]2(OC(C)=O)[C@H]2[C@H](OC(=O)c3ccccc3)[C@]3(O)C[C@H](OC(=O)[C@H](O)[C@@H](NC(=O)c4ccccc4)c4ccccc4)C(C)=C([C@@H](OC(C)=O)[C@H](O)[C@]12C)C3(C)C (stereo partly specified)	0.92
CO[C@H]1[C@H](OC(C)=O)C2=C(C)[C@@H](OC(=O)[C@H](O)[C@@H](NC(=O)c3ccccc3)c3ccccc3)C[C@@](O)([C@@H](OC(=O)c3ccccc3)[C@H]3[C@@]1(C)[C@@H](O)CC1OC[C@]13OC(C)=O)C2(C)C (stereo partly specified)	0.35
CC(=O)O[C@@H]1C2=C(C)[C@@H](OC(=O)[C@H](O)[C@@H](NC(=O)OC(C)(C)C)C3CCCCC3)C[C@@](O)([C@@H](OC(=O)c3ccccc3)[C@H]3[C@@](C)([C@@H](O)CC4OC[C@]43OC(C)=O)[C@H]1O)C2(C)C (stereo partly specified)	0.57
COc1ccc(C(=O)N[C@H](c2ccccc2)[C@@H](O)C(=O)O[C@H]2C[C@@]3(O)[C@@H](OC(=O)c4ccccc4)[C@H]4[C@](C)(C(=O)[C@H](OC(C)=O)C(=C2C)C3(C)C)[C@@H](O)CC2OC[C@]24OC(C)=O)cc1 (stereo partly specified)	0.5
CC(=O)O[C@@H]1C2=C(C)[C@@H](OC(=O)[C@H](O)[C@@H](NC(=O)OC(C)(C)C)c3ccccc3)C[C@@](O)([C@@H](OC(=O)c3ccccc3)[C@H]3[C@@](C)([C@@H](O)CC4OC[C@]43OC(C)=O)[C@H]1O)C2(C)C (stereo partly specified)	0.87
COc1ccc([C@@H](NC(=O)c2ccccc2)[C@@H](O)C(=O)O[C@H]2C[C@@]3(O)[C@@H](OC(=O)c4ccccc4)[C@H]4[C@](C)(C(=O)[C@H](OC(C)=O)C(=C2C)C3(C)C)[C@@H](O)CC2OC[C@]24OC(C)=O)cc1 (stereo partly specified)	0.5
CC(=O)O[C@H]1C(=O)[C@]2(C)[C@@H](O)CC3OC[C@@]3(OC(C)=O)[C@H]2[C@H](OC(=O)c2ccccc2)[C@]2(O)C[C@H](OC(=O)[C@H](NC(=O)c3ccccc3)[C@H](O)c3ccccc3)C(C)=C1C2(C)C (stereo partly specified)	10
CC(=O)O[C@H]1C(=O)[C@]2(C)[C@@H](O)CC3OC[C@@]3(OC(C)=O)[C@H]2[C@H](OC(=O)c2ccccc2)[C@]2(O)C[C@H](OC(=O)C(O)C(C)O)C(C)=C1C2(C)C (stereo partly specified)	60
CC(=O)O[C@H]1C(=O)[C@]2(C)[C@@H](O)CC3OC[C@@]3(OC(C)=O)[C@H]2[C@H](OC(=O)C2CCCCC2)[C@]2(O)C[C@H](OC(=O)[C@H](O)[C@@H](NC(=O)OC(C)(C)C)c3ccccc3)C(C)=C1C2(C)C (stereo partly specified)	0.67
CCCC[C@H](NC(=O)OC(C)(C)C)[C@@H](O)C(=O)O[C@H]1C[C@@]2(O)[C@@H](OC(=O)c3ccccc3)[C@H]3[C@@](C)([C@@H](O)CC4OC[C@]43OC(C)=O)[C@@H](O)[C@H](OC(C)=O)C(=C1C)C2(C)C (stereo partly specified)	9.74
CC(=O)O[C@H]1C(=O)[C@]2(C)[C@@H](O)CC3OC[C@@]3(OC(C)=O)[C@H]2[C@H](OC(=O)c2ccccc2)[C@]2(O)C[C@H](OC(=O)[C@H](O)[C@@H](NC(=O)c3ccccc3)C3CCCCC3)C(C)=C1C2(C)C (stereo partly specified)	0.29
CC(=O)O[C@@]12COC1C[C@H](O)[C@@]1(C)C(=O)[C@H](O)C3=C(C)[C@@H](OC(=O)[C@H](O)[C@@H](/C=C/c4ccccc4)NC(=O)OC(C)(C)C)C[C@@](O)([C@@H](OC(=O)c4ccccc4)[C@@H]12)C3(C)C (stereo partly specified)	1.45

Structure (SMILES)	Activity
CC(=O)O[C@@]12COC1C[C@H](O)[C@@]1(C)C(=O)[C@H](O)C3=C(C)[C@@H](OC(=O)[C@H](NC(=O)c4ccccc4)[C@H](O)c4ccccc4)C[C@@](O)([C@@H](OC(=O)c4ccccc4)[C@@H]12)C3(C)C (stereo partly specified)	10
COC[C@H](NC(=O)c1ccccc1)[C@@H](O)C(=O)O[C@H]1C[C@@]2(O)[C@@H](OC(=O)c3ccccc3)[C@H]3[C@@](C)([C@@H](O)CC4OC[C@]43OC(C)=O)[C@@H](O)[C@H](OC(C)=O)C(=C1C)C2(C)C (stereo partly specified)	3.14
CC(=O)O[C@H]1C(=O)[C@]2(C)[C@@H](O)CC3OC[C@@]3(OC(C)=O)[C@H]2[C@H](OC(=O)c2ccccc2)[C@]2(O)C[C@H](OC(=O)[C@H](O)[C@H](NC(=O)c3ccccc3)c3ccc(Cl)cc3)C(C)=C1C2(C)C (stereo partly specified)	2.4
CC(=O)O[C@H]1C(=O)[C@]2(C)[C@@H](O)CC3OC[C@@]3(OC(C)=O)[C@H]2[C@H](OC(=O)C2CCCCC2)[C@]2(O)C[C@H](OC(=O)[C@H](O)[C@@H](NC(=O)c3ccccc3)c3ccccc3)C(C)=C1C2(C)C (stereo partly specified)	1.7
CC(=O)O[C@@]12COC1C[C@H](O)[C@@]1(C)C(=O)[C@H](O)C3=C(C)[C@@H](OC(=O)[C@@H](O)Cc4ccccc4)C[C@@](O)([C@@H](OC(=O)c4ccccc4)[C@@H]12)C3(C)C (stereo partly specified)	3.5
CC(=O)O[C@@]12COC1C[C@H](O)[C@@]1(C)C(=O)[C@H](O)C3=C(C)[C@@H](OC(=O)CCc4ccccc4)C[C@@](O)([C@@H](OC(=O)c4ccccc4)[C@@H]12)C3(C)C (stereo partly specified)	17
CC(=O)O[C@@]12COC1C[C@H](O)[C@@]1(C)C(=O)[C@H](O)C3=C(C)[C@@H](OC(=O)[C@H](O)[C@H](NC(=O)C4CCCC4)C(C)(C)C)C[C@@](O)([C@@H](OC(=O)c4ccccc4)[C@@H]12)C3(C)C (stereo partly specified)	1.5
CC(=O)O[C@@]12COC1C[C@H](O)[C@@]1(C)C(=O)[C@H](O)C3=C(C)[C@@H](OC(=O)C(O)C(O)c4ccccc4)C[C@@](O)([C@@H](OC(=O)c4ccccc4)[C@@H]12)C3(C)C (stereo partly specified)	3
CC(=O)O[C@@]12COC1C[C@H](O)[C@@]1(C)C(=O)[C@H](O)C3=C(C)[C@@H](OC(=O)[C@H](O)[C@H](NC(=O)c4cccs4)C(C)(C)C)C[C@@](O)([C@@H](OC(=O)c4ccccc4)[C@@H]12)C3(C)C (stereo partly specified)	0.42
CC(=O)O[C@H]1C(=O)[C@]2(C)[C@@H](O)CC3OC[C@@]3(OC(C)=O)[C@H]2[C@H](OC(=O)c2ccccc2)[C@]2(O)C[C@H](OC(=O)[C@H](O)[C@H](NC(=O)c3ccc(C(F)(F)F)cc3)c3ccccc3)C(C)=C1C2(C)C (stereo partly specified)	6
CC[C@H](NC(=O)OC(C)(C)C)[C@@H](O)C(=O)O[C@H]1C[C@@]2(O)[C@@H](OC(=O)c3ccccc3)[C@H]3[C@@](C)([C@@H](O)CC4OC[C@]43OC(C)=O)[C@@H](O)[C@H](OC(C)=O)C(=C1C)C2(C)C (stereo partly specified)	0.61
CC(=O)O[C@@]12COC1C[C@H](O)[C@@]1(C)C(=O)[C@H](O)C3=C(C)[C@@H](OC(=O)[C@H](O)[C@@H](NC(=O)OC(C)(C)C)c4ccccc4)[C@H](O)[C@@](O)([C@@H](OC(=O)c4ccccc4)[C@@H]12)C3(C)C (stereo partly specified)	0.8
CC(=O)O[C@@]12COC1C[C@H](O)[C@@]1(C)C(=O)[C@H](O)C3=C(C)[C@@H](OC(=O)[C@H](O)[C@@H](CC(C)C)NC(=O)OC(C)(C)C)C[C@@](O)([C@@H](OC(=O)c4ccccc4)[C@@H]12)C3(C)C (stereo partly specified)	0.78
CC(=O)O[C@@H]1C2=C(C)[C@@H](OC(=O)[C@H](O)[C@H](C)NC(=O)OC(C)(C)C)C[C@@](O)([C@@H](OC(=O)c3ccccc3)[C@H]3[C@@](C)([C@@H](O)CC4OC[C@]43OC(C)=O)[C@H]1O)C2(C)C (stereo partly specified)	1.08
CC(=O)O[C@@]12COC1C[C@H](O)[C@@]1(C)C(=O)[C@H](O)C3=C(C)[C@@H](OC(=O)[C@@H](O)[C@H](N)c4ccccc4)C[C@@](O)([C@@H](OC(=O)c4ccccc4)[C@@H]12)C3(C)C (stereo partly specified)	30
CC(=O)O[C@H]1C(=O)[C@]2(C)[C@@H](O)CC3OC[C@@]3(OC(C)=O)[C@H]2[C@H](OC(=O)c2ccccc2)[C@]2(O)C[C@H](OC(=O)[C@@H](NC(=O)OC(C)(C)C)[C@@H](O)c3ccccc3)C(C)=C1C2(C)C (stereo partly specified)	108
CC(=O)O[C@H]1C(=O)[C@]2(C)[C@@H](O)CC3OC[C@@]3(OC(C)=O)[C@H]2[C@H](OC(=O)c2ccccc2)[C@]2(O)C[C@H](OC(=O)[C@H](O)[C@H](NC(=O)C(C)(C)C)c3ccccc3)C(C)=C1C2(C)C (stereo partly specified)	2.6
CC(=O)O[C@H]1C(=O)[C@]2(C)[C@@H](O)CC3OC[C@@]3(OC(C)=O)[C@H]2[C@H](OC(=O)c2ccccc2)[C@]2(O)C[C@H](OC(=O)[C@H](O)[C@H](NC(=O)OC(C)(C)C)c3ccccc3)C(C)=C1C2(C)C (stereo partly specified)	0.5
